20 compounds from US8962648B2, “Tricyclic compounds and PBK inhibitors containing the same” (OncoTherapy Science, Inc., priority 2010, dated 2015) can be followed below.

One assay deals with T47D cells. As to the kind of experiment: Cell-based assay, cellular growth (Cell Counting Kit-8, 72 hours). The note with it: Homo sapiens, T47D, 72 h. On the procedure:
(§1) 100 micro-L of cell suspension was seeded onto 96-well microtiter plate (ViewPlate-96FTC, PerkinElmer). […] Cellular growth was determined using Cell Counting Kit-8 (DOJINDO) at 72 hours after the exposure of the candidate inhibitors. […] Accurate IC50 values were calculated as described previously.
(Formazan colour is commonly taken as a measure of viable cells.)

A further assay has as its system BT-549 cells. Described as above. The note with it: Homo sapiens, BT549 cells. On the procedure:
as §1

For the next assay, the system named is A549 cells. The assay is described as above. The note with it: Homo sapiens, A549, 72 h. As for the experimental part: as §1
A further assay deals with PBK (Homo sapiens (Human), UniProt Q96KB5). As to the kind of experiment: Kinase assay (IMAP fluorescence polarization, FITC-labeled histone H3 peptide). It is filed as biochemical. On the procedure:
PBK activity was determined in the presence or absence of compounds using fluorescein isothiocyanate-labeled (FITC-labeled) histone H3 peptide as a substrate. […] The serially diluted compounds, 0.8 ng/micro-L PBK (Carna Biosciences) and 100 nM FITC-labeled histone H3 peptide were reacted in a reaction buffer (20 mM HEPES, 0.01% Tween-20, 0.3 mM MgCl2, 2 mM dithiothreitol, 50 micro-M ATP, pH 7.4) at room temperature for 1 hour. The reaction was stopped by the addition of three fold assay volume of progressive binding solution. […] IC50 values were calculated by nonlinear four parameter fit using SigmaPlot, version 10.0 (Systat Software, Inc.).
For orientation: Fluorescence polarisation rises when a labelled molecule tumbles more slowly, as on binding a larger partner.

The next assay has as its system HT-1197 cells. As to the kind of experiment: Cell-based assay, cellular growth (Cell Counting Kit-8, 72 hours), PBK-negative control cells. Conditions: Homo sapiens, HT1197, 72 h. On the procedure: as §1
Setting [1] is: PBK 0.8 ng/micro-L, 50 micro-M ATP, 100 nM FITC-labeled histone H3 peptide, room temperature 1 hour.

Broadly, the IC50 is the midpoint of a concentration-inhibition curve. Read a low IC50 as greater potency in that assay.

Structures can show the parent of a compound that is named as a salt. Where two headings read alike, the source gives them in different places.

Chain of PBK (Q96KB5 whole entry): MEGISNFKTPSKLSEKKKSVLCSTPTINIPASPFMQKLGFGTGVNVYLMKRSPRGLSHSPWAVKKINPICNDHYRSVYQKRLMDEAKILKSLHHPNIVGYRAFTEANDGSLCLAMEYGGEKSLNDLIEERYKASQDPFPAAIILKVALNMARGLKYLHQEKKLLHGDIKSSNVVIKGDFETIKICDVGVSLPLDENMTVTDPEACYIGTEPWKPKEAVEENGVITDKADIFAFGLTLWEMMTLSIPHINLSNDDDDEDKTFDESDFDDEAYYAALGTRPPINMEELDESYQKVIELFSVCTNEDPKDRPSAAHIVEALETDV

For `NCCc1ccc(-c2c(O)cc(Br)c3[nH]c(=O)c4sccc4c23)cc1F` [Compound 1213, 9-(4-(2-aminoethyl)-3-fluorophenyl)-6-bromo-8-hydroxythieno[2,3-c]quinolin-4(5H)-one hydrochloride], the IC50 with T47D cells is 380 nM; in the assay on BT-549 cells it was 230 nM; with A549 cells, 360 nM; on PBK (setting [1]) it was 19 nM; with HT-1197 cells, 1700 nM.
On the same counts, the results for `COc1cc(C)c2[nH]c(=O)c3sccc3c2c1-c1ccc(CCN)c(F)c1` [Compound 1216, 9-(4-(2-aminoethyl)-3-fluorophenyl)-8-methoxy-6-methylthieno[2,3-c]quinolin-4(5H)-one hydrochloride] are 460 nM, 210 nM, 280 nM, 57 nM and 640 nM.
On the same counts, the results for `Cc1cc(O)c(-c2ccc(CCN)c(F)c2)c2c1[nH]c(=O)c1sccc12` [Compound 1217, 9-(4-(2-aminoethyl)-3-fluorophenyl)-8-hydroxy-6-methylthieno[2,3-c]quinolin-4(5H)-one hydrochloride] are 84 nM, 65 nM, 140 nM, 4.7 nM and 480 nM.
On the same counts, the results for `NCCc1ccc(-c2c(O)cc(Cl)c3[nH]c(=O)c4sccc4c23)cc1F` [Compound 1219, 9-(4-(2-aminoethyl)-3-fluorophenyl)-6-chloro-8-hydroxythieno[2,3-c]quinolin-4(5H)-one hydrochloride] are 180 nM, 100 nM, 170 nM, 5.5 nM and 880 nM.
In the case of `Cc1cc(O)c(-c2ccc(CCC#N)cc2)c2c1[nH]c(=O)c1sccc12` [Compound 1226, 3-(4-(8-hydroxy-6-methyl-4-oxo-4,5-dihydrothieno[2,3-c]quinolin-9-yl)phenyl)propanenitrile], the IC50 in the assay on T47D cells came out at 1200 nM; in the assay on BT-549 cells, 590 nM; in the assay with A549 cells it was 490 nM; on PBK (setting [1]) it was 92 nM; with HT-1197 cells it was 1300 nM.
Consider `Cc1cc(O)c(-c2ccc(C(C)(C)CN)cc2)c2c1[nH]c(=O)c1sccc12` [Compound 1228, 9-(4-(1-amino-2-methylpropan-2-yl)phenyl)-8-hydroxy-6-methylthieno[2,3-c]quinolin-4(5H)-one hydrochloride], for which the IC50 in the assay with T47D cells came out at 330 nM; in the assay on BT-549 cells it was 150 nM; in the assay with A549 cells, 160 nM; against PBK (setting [1]), 39 nM; in the assay on HT-1197 cells it was 810 nM.
In the same order, the values of `NCC(c1ccc(-c2c(O)ccc3[nH]c(=O)c4sccc4c23)cc1)C1CCCC1` (stereo not shown) [Compound 1236, 9-(4-(2-amino-1-cyclopentylethyl)phenyl)-8-hydroxythieno[2,3-c]quinolin-4(5H)-one] are 800 nM, 510 nM, 460 nM, 4.6 nM and 1000 nM.
With `COc1ccc2[nH]c(=O)c3sccc3c2c1-c1ccc(C(CN)C2CCCC2)cc1` (stereo not shown) [Compound 1239, 9-(4-(2-amino-1-cyclopentylethyl)phenyl)-8-methoxythieno[2,3-c]quinolin-4(5H)-one hydrochloride], the IC50 with T47D cells turned out to be 1100 nM; in the assay with BT-549 cells, 1500 nM; in the assay on A549 cells, 890 nM; against PBK, 23 nM; with HT-1197 cells it was 1700 nM.
On the same counts, the results for `Cc1cc(O)c(-c2ccc(CC(C)N)cc2)c2c1[nH]c(=O)c1sccc12` (stereo not shown) [Compound 1242, 9-(4-(2-aminopropyl)phenyl)-8-hydroxy-6-methylthieno[2,3-c]quinolin-4(5H)-one hydrochloride] are 150 nM, 110 nM, 120 nM, 37 nM and 420 nM.
Regarding `CC(C)C(CN)c1ccc(-c2c(O)ccc3[nH]c(=O)c4sccc4c23)cc1` (stereo not shown) [Compound 1252, 9-(4-(1-amino-3-methylbutan-2-yl)phenyl)-8-hydroxythieno[2,3-c]quinolin-4(5H)-one], the IC50 was found to be 210 nM in the assay with T47D cells; 250 nM in the assay on BT-549 cells; 160 nM in the assay on A549 cells; 1.4 nM at PBK (setting [1]); 420 nM in the assay with HT-1197 cells.
As for `COc1ccc2[nH]c(=O)c3sccc3c2c1-c1ccc(C(CN)C(C)C)cc1` (stereo not shown) [Compound 1253, 9-(4-(1-amino-3-methylbutan-2-yl)phenyl)-8-methoxythieno[2,3-c]quinolin-4(5H)-one hydrochloride], the IC50 stood at 870 nM with T47D cells; 1500 nM with BT-549 cells; 760 nM with A549 cells; 4.1 nM on PBK; 1900 nM in the assay on HT-1197 cells.
On to `COc1cc(C)c2[nH]c(=O)c3sccc3c2c1-c1ccc(C(C)CN)c(F)c1` (stereo not shown) [Compound 1273, 9-(4-(1-aminopropan-2-yl)-3-fluorophenyl)-8-methoxy-6-methylthieno[2,3-c]quinolin-4(5H)-one hydrochloride], for which the IC50 in the assay with T47D cells came out at 170 nM; with BT-549 cells, 73 nM; in the assay with A549 cells it was 71 nM; against PBK, 40 nM; in the assay on HT-1197 cells it was 200 nM.
`Cc1cc(O)c(-c2ccc(C(CN)C(C)C)cc2)c2c1[nH]c(=O)c1sccc12` (stereo not shown) [Compound 1274, 9-(4-(1-amino-3-methylbutan-2-yl)phenyl)-8-hydroxy-6-methylthieno[2,3-c]quinolin-4(5H)-one]: the IC50 with T47D cells was 98 nM; in the assay on BT-549 cells, 66 nM; with A549 cells it was 45 nM; against PBK (setting [1]), 18 nM; in the assay with HT-1197 cells, 180 nM.
On the same counts, the results for `COc1cc(C)c2[nH]c(=O)c3sccc3c2c1-c1ccc(C(CN)C(C)C)c(F)c1` (stereo not shown) [Compound 1283, 9-(4-(1-amino-3-methylbutan-2-yl)-3-fluorophenyl)-8-methoxy-6-methylthieno[2,3-c]quinolin-4(5H)-one hydrochloride] are 560 nM, 250 nM, 560 nM, 47 nM and 530 nM.
On the same counts, the results for `CNCC(c1ccc(-c2c(O)cc(C)c3[nH]c(=O)c4sccc4c23)cc1)C(C)C` (stereo not shown) [Compound 1285, 8-hydroxy-6-methyl-9-(4-(3-methyl-1-(methylamino)butan-2-yl)phenyl)thieno[2,3-c]quinolin-4(5H)-one] are 210 nM, 110 nM, 230 nM, 50 nM and 280 nM.
Turning to `CNCC(C)c1ccc(-c2c(OC)cc(C)c3[nH]c(=O)c4sccc4c23)cc1F` (stereo not shown) [Compound 1286, 9-(3-fluoro-4-(1-(methylamino)propan-2-yl)phenyl)-8-methoxy-6-methylthieno[2,3-c]quinolin-4(5H)-one hydrochloride], the IC50 stood at 220 nM with T47D cells; 93 nM in the assay on BT-549 cells; 95 nM in the assay on A549 cells; 43 nM at PBK; 220 nM with HT-1197 cells.
With `Cc1cc(O)c(-c2ccc(C(CN)C(C)C)c(F)c2)c2c1[nH]c(=O)c1sccc12` (stereo not shown) [Compound 1288, 9-(4-(1-amino-3-methylbutan-2-yl)-3-fluorophenyl)-8-hydroxy-6-methylthieno[2,3-c]quinolin-4(5H)-one], the IC50 in the assay with T47D cells is 74 nM; with BT-549 cells, 47 nM; in the assay on A549 cells, 110 nM; against PBK (setting [1]), 20 nM; with HT-1197 cells it was 140 nM.
In the case of `CNCC(C)c1ccc(-c2c(O)cc(C)c3[nH]c(=O)c4sccc4c23)cc1F` (stereo not shown) [Compound 1293, 9-(3-fluoro-4-(1-(methylamino)propan-2-yl)phenyl)-8-hydroxy-6-methylthieno[2,3-c]quinolin-4(5H)-one], the IC50 in the assay with T47D cells stood at 52 nM; in the assay on BT-549 cells it was 32 nM; in the assay with A549 cells it was 35 nM; against PBK (setting [1]), 8.9 nM; in the assay on HT-1197 cells, 190 nM.
Regarding `CNCC(c1ccc(-c2c(O)cc(C)c3[nH]c(=O)c4sccc4c23)cc1F)C(C)C` (stereo not shown) [Compound 1294, 9-(3-fluoro-4-(3-methyl-1-(methylamino)butan-2-yl)phenyl)-8-hydroxy-6-methylthieno[2,3-c]quinolin-4(5H)-one], the IC50 was 180 nM in the assay on T47D cells; 85 nM with BT-549 cells; 78 nM in the assay with A549 cells; 17 nM against PBK (setting [1]); 340 nM in the assay with HT-1197 cells.
In the same order, the values of `CNC[C@H](C)c1ccc(-c2c(OC)cc(C)c3[nH]c(=O)c4sccc4c23)cc1` [Compound 1298, (R)-8-methoxy-6-methyl-9-(4-(1-(methylamino)propan-2-yl)phenyl)thieno[2,3-c]quinolin-4(5H)-one hydrochloride] are 140 nM, 64 nM, 68 nM, 32 nM and 160 nM.
